In patent US8049037B2, “Sphingosine-1-phosphate (S1P) receptor antagonists and methods for use thereof” (Allergan, Inc., priority 2008, dated 2011):

Target: T1, human S1P3 receptor (Homo sapiens, UniProt Q99500)
T1 construct: expressed in transfected cells
Experiment: S1P3 FLIPR Ca2+ assay in T24 cells stably expressing the human S1P3 receptor
Type: cell-based
Settings: for IC50: tested over 0.61 nM to 10,000 nM, read-out: IC50, activity potency human S1P3 receptor from FLIPR
Protocol: The compounds of the invention were tested for S1P3 activity using the Flipr assay. The compounds may be assessed for ability to activate or block activation of the human S1P3 receptor in T24 cells stably expressing the human S1P3 receptor. Ten thousand cells/well are plated into 384-well poly-D-lysine coated plates one day prior to use. The growth media for the S1P3 receptor expressing cell line McCoy's 5A medium supplemented with 10% charcoal-treated fetal bovine serum (FBS), 1% antibiotic-antimycotic and 400 μg/mL genetecin. On the day of the experiment, the cells are washed twice Hank's Balanced Salt Solution supplemented with 20 mM HEPES (HBSS/Hepes buffer). The cells are then dye loaded with 2 μM Fluo-4 diluted in the HBSS/Hepes buffer with 1.25 mM Probenecid and incubated at 37° C. for 40 minutes. Extracellular dye is removed by washing the cell plates four times prior to placing the plates in the FLIPR (Fluorometric Imaging Plate Reader, Molecular Devices). Ligands are diluted in HBSS/Hepes buffer and prepared in 384-well microplates. The positive control, Sphingosine-1-phosphate (SIP), is diluted in HBSS/Hepes buffer with 4 mg/mL fatty acid free bovine serum albumin. The FLIPR transfers 12.5 μL from the ligand microplate to the cell plate and takes fluorescent measurements for 75 seconds, taking readings every second, and then for 2.5 minutes, taking readings every 10 seconds. Drugs are tested over the concentration range of 0.61 nM to 10,000 nM. Data for Ca^+2 responses are obtained in arbitrary fluorescence units and not translated into Ca^+2 concentrations. IC50 values are determined through a […] analysis using the Levenburg Marquardt algorithm.

T1 sequence (Q99500 whole entry): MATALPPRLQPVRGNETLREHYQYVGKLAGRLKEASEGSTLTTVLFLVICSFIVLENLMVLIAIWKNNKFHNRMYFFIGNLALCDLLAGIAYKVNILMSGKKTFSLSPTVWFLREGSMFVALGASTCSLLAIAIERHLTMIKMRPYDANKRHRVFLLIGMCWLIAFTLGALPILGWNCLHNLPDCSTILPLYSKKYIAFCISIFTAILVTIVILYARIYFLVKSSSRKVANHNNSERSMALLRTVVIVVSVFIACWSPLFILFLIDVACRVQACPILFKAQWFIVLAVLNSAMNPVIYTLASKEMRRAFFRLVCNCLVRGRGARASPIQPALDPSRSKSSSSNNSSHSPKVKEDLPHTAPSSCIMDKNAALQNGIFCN

With `O=C(NC(Nc1ccc([N+](=O)[O-])cc1)C(Cl)(Cl)Cl)c1ccc(Cl)cc1` (stereo not drawn) the “% Antagonism, human S1P3 receptor from FLIPR” value (shortened to “% Antagonism”) was 93% and the IC50 was 1370 nM.
For `O=C(NC(Nc1ccccc1)C(Cl)(Cl)Cl)c1ccc(Br)cc1` (stereo not drawn), the “% Antagonism” value was 97% and the IC50 was 148 nM.
With `COc1ccc(C(=O)NC(Nc2ccc(Cl)cc2)C(Cl)(Cl)Cl)cc1` (stereo not drawn) the “% Antagonism” value was 96% and the IC50 was 278 nM.
For `O=C(NC(Nc1ccc(Cl)cc1)C(Cl)(Cl)Cl)c1cccc(Cl)c1` (stereo not drawn), the “% Antagonism” value was 94% and the IC50 was 1520 nM.
For `COc1ccc(NC(NC(=O)c2ccc(Br)cc2)C(Cl)(Cl)Cl)cc1` (stereo not drawn), the “% Antagonism” value was 94% and the IC50 was 492 nM.
For `COc1ccc(C(=O)NC(Nc2ccc(C)cc2)C(Cl)(Cl)Cl)cc1` (stereo not drawn), the “% Antagonism” value was 98% and the IC50 was 466 nM.
For `O=C(NC(Nc1ccc(Br)cc1)C(Cl)(Cl)Cl)c1ccc([N+](=O)[O-])cc1` (stereo not drawn), the “% Antagonism” value was 91% and the IC50 was 1450 nM.
`Cc1ccc(C(=O)NC(Nc2ccc(Cl)cc2)C(Br)(Br)Br)cc1` (stereo not drawn) was tested, and the “% Antagonism” value was 76% and the IC50 was 1140 nM.
With `O=C(NC(Nc1ccccc1C(F)(F)F)C(Cl)(Cl)Cl)c1ccco1` (stereo not drawn) the “% Antagonism” value was 56% and the IC50 was 1410 nM.
With `O=C(NC(Nc1ccc(Br)cc1)C(Cl)(Cl)Cl)c1ccco1` (stereo not drawn) the “% Antagonism” value was 98% and the IC50 was 365 nM.
In the case of `O=C(NC(Nc1ccc(Cl)cc1)C(Cl)(Cl)Cl)c1ccc(Br)cc1` (single isomer, unassigned; (-)) [(−)-4-bromo-N-(2,2,2-trichloro-1-(4-chlorophenylamino)ethyl)benzamide], the “% Antagonism” value is reported as 96% and the IC50 is reported as 16 nM.
`O=C(NC(Nc1ccc(Cl)cc1)C(Cl)(Cl)Cl)c1ccc(Br)cn1` (single isomer, unassigned; (-)) [(−)-5-bromo-N-(2,2,2-trichloro-1-(4-chlorophenylamino)ethyl)picolinamide] was tested, and the “% Antagonism” value was 99% and the IC50 was 1.4 nM.
`O=C(NC(Nc1ccc(Cl)cc1)C(Cl)(Cl)Cl)c1ccc(F)c(F)c1` (stereo not drawn) [3,4-difluoro-N-(2,2,2-trichloro-1-(4-chlorophenylamino)ethyl)benzamide] was tested, and the “% Antagonism” value was 95% and the IC50 was 256 nM.
For `O=C(NC(Nc1ccc(Cl)cc1)C(Br)(Br)Br)c1ccc(Br)cc1` (stereo not drawn) [4-bromo-N-(2,2,2-tribromo-1-(4-chlorophenylamino)ethyl)benzamide], the “% Antagonism” value was 100% and the IC50 was 98 nM.
With `O=C(NC(Nc1ccc(Cl)cc1)C(Cl)(Cl)Cl)c1ccc(Br)cc1` (stereo not drawn) [4-bromo-N-(2,2,2-trichloro-1-(4-chlorophenylamino)ethyl)benzamide] the “% Antagonism” value was 96% and the IC50 was 28 nM.
`O=C(NC(Nc1ccc(Cl)cc1)C(Cl)(Cl)Cl)c1cc(Br)co1` (stereo not drawn) [4-bromo-N-(2,2,2-trichloro-1-(4-chlorophenylamino)ethyl)furan-2-carboxamide] was tested, and the “% Antagonism” value was 90% and the IC50 was 9.5 nM.
With `Cc1ccc(NC(NC(=O)c2ccc(Br)cc2)C(Cl)(Cl)Cl)cc1` (stereo not drawn) [4-bromo-N-(2,2,2-trichloro-1-(p-tolylamino)ethyl)benzamide] the “% Antagonism” value was 100% and the IC50 was 73 nM.
With `O=C(NC(Nc1ccc(Cl)cc1)C(F)(F)F)c1ccc(Br)cc1` (stereo not drawn) [4-bromo-N-[1-(4-chlorophenylamino)-2,2,2-trifluoro-ethyl]-benzamide] the “% Antagonism” value was 100% and the IC50 was 2990 nM.
`O=C(NC(Nc1ccc(Cl)c(F)c1)C(Cl)(Cl)Cl)c1ccc(Br)cc1` (stereo not drawn) [4-bromo-N-[2,2,2-trichloro-1-(4-chloro-3-fluoro-phenylamino)-ethyl]-benzamide] was tested, and the “% Antagonism” value was 95% and the IC50 was 110 nM.
For `O=C(NC(Nc1ccc(Cl)cc1)C(Cl)(Cl)Cl)c1ccc(Cl)cc1` (stereo not drawn) [4-chloro-N-(2,2,2-trichloro-1-(4-chlorophenylamino)ethyl)benzamide], the “% Antagonism” value was 100% and the IC50 was 145 nM.
With `O=C(NC(Nc1ccc(Cl)cc1)C(F)(F)F)c1ccc(Br)cn1` (stereo not drawn) [5-Bromo-N-(1-(4-chlorophenylamino)-2,2,2-trifluoroethyl)picolinamide] the “% Antagonism” value was 99% and the IC50 was 4.7 nM.
With `O=C(NC(Nc1ccc(Cl)cc1)C(F)(F)Cl)c1ccc(Br)cn1` (stereo not drawn) [5-Bromo-N-(2-chloro-1-(4-chlorophenylamino)-2,2-difluoroethyl)picolinamide] the “% Antagonism” value was 99% and the IC50 was 1650 nM.
For `O=C(NC(Nc1ccc(Cl)cc1)C(Cl)(Cl)Cl)c1ccc(Cl)cn1` (stereo not drawn) [5-Chloro-N-(2,2,2-trichloro-1-(4-chlorophenylamino)ethyl)picolinamide], the “% Antagonism” value was 98% and the IC50 was 6.3 nM.
With `O=C(NC(Nc1ccc(Cl)cc1)C(Cl)(Cl)Cl)c1ccc(Br)cn1` (stereo not drawn) [5-bromo-N-(2,2,2-trichloro-1-(4-chlorophenylamino)ethyl)picolinamide] the “% Antagonism” value was 99% and the IC50 was 2 nM.
`O=C(NC(Nc1ccc(Cl)cc1)C(Cl)(Cl)Cl)c1ccc(Br)o1` (stereo not drawn) [5-bromo-furan-2-carboxylic acid (2,2,2-trichloro-1-(4-chloro-phenylamino)-ethyl)-amide] was tested, and the “% Antagonism” value was 95% and the IC50 was 711 nM.
For `O=C(NC(Nc1ccc(Cl)cc1)C(Cl)(Cl)Cl)c1ccc(Br)nc1` (stereo not drawn) [6-bromo-N-(2,2,2-trichloro-1-(4-chlorophenylamino)ethyl)nicotinamide], the “% Antagonism” value was 97% and the IC50 was 245 nM.
With `O=C(NC(Nc1ccc(Cl)c(F)c1)C(Cl)(Cl)Cl)c1ccco1` (stereo not drawn) [Furan-2-carboxylic acid (2,2,2-trichloro-1-(4-chloro-3-fluoro-phenylamino)-ethyl)-amide] the “% Antagonism” value was 98% and the IC50 was 291 nM.
`Cc1ccc(NC(NC(=O)c2ccco2)C(Cl)(Cl)Cl)cc1` (stereo not drawn) [Furan-2-carboxylic acid (2,2,2-trichloro-1-p-tolylamino-ethyl)-amide] was tested, and the “% Antagonism” value was 100% and the IC50 was 454 nM.
In the case of `Cc1cccc(C)c1NC(NC(=O)c1ccco1)C(Cl)(Cl)Cl` (stereo not drawn) [N-{2,2,2-trichloro-1-[(2,6-dimethylphenyl)amino]ethyl}-2-furamide], the “% Antagonism” value is reported as 41% and the IC50 is reported as 1470 nM.
For `Cc1ccc(NC(NC(=O)c2ccco2)C(Cl)(Cl)Cl)c(F)c1` (stereo not drawn) [N-{2,2,2-trichloro-1-[(2-fluoro-4-methylphenyl)amino]ethyl}-2-furamide], the “% Antagonism” value was 102% and the IC50 was 1400 nM.
For `O=C(NC(Nc1ccccc1F)C(Cl)(Cl)Cl)c1ccco1` (stereo not drawn) [N-{2,2,2-trichloro-1-[(2-fluorophenyl)amino]ethyl}-2-furamide], the “% Antagonism” value was 98% and the IC50 was 1100 nM.
For `O=C(NC(Nc1cccc(F)c1)C(Cl)(Cl)Cl)c1ccco1` (stereo not drawn) [N-{2,2,2-trichloro-1-[(3-fluorophenyl)amino]ethyl}-2-furamide], the “% Antagonism” value was 100% and the IC50 was 363 nM.
In the case of `O=C(NC(Nc1ccc(Cl)cc1)C(Cl)(Cl)Cl)c1ccco1` (stereo not drawn) [N-{2,2,2-trichloro-1-[(4-chlorophenyl)amino]ethyl}-2-furamide], the “% Antagonism” value is reported as 98% and the IC50 is reported as 270 nM.
With `Cc1cc(F)ccc1NC(NC(=O)c1ccco1)C(Cl)(Cl)Cl` (stereo not drawn) [N-{2,2,2-trichloro-1-[(4-fluoro-2-methylphenyl)amino]ethyl}-2-furamide] the “% Antagonism” value was 95% and the IC50 was 1180 nM.
With `Cc1cc(NC(NC(=O)c2ccco2)C(Cl)(Cl)Cl)ccc1F` (stereo not drawn) [N-{2,2,2-trichloro-1-[(4-fluoro-3-methylphenyl)amino]ethyl}-2-furamide] the “% Antagonism” value was 99% and the IC50 was 430 nM.
In the case of `O=C(NC(Nc1ccc(F)cc1)C(Cl)(Cl)Cl)c1ccco1` (stereo not drawn) [N-{2,2,2-trichloro-1-[(4-fluorophenyl)amino]ethyl}-2-furamide], the “% Antagonism” value is reported as 99% and the IC50 is reported as 498 nM.
